In patent US20240173372A1 (IMDpharm Inc., priority 2021, published 2024):
Converted amounts (≈) assume the structure as drawn.

Test system: House Ear Institute-Organ of Corti 1 (HEI-OC1) auditory hair cell
Experiment: Apoptosis inhibitory effect on auditory cell line treated with hydrogen peroxide (MTT analysis)
Assay type: cell-based, mice
Conditions: Mus musculus, HEI-OC1, 100 μM hydrogen peroxide, read-out: EC50 (apoptosis inhibitory effect, hair cells)
Protocol: House Ear Institute-Organ of Corti 1 (HEI-OC1), an auditory hair cell derived from the Organ of Corti which is the auditory generation organ in mice, was cultured in an incubator at 33° C. in the presence of 10% CO2 using DMEM (high-glucose Dulbecco's Eagle's medium, Sigma-Aldrich Co., St. Louis, USA) culture including 10% fetal bovine serum (FBS; WELGENE Inc., Gyeongsangbuk-do, Korea) and 50 U/mL INF-γ (Peprotech Inc., Seoul, Korea) without addition of antibiotics. In order to generate reactive oxygen species (ROS) caused by oxidative stress that occurs in the process of inducing noise induced hearing loss, cell lines with noise induced hearing loss were established by treating hydrogen peroxide.

COc1cccc(CCc2ccccc2OCC(CN(C)C)OC(=O)CCC(=O)O)c1 (single isomer, unassigned; (-)) [sarpogrelate, (−)-4-[1-dimethylamino-3-[2-[2-(3-methoxyphenyl)ethyl]phenoxy]propan-2-yl]oxy-4-oxobutanoic acid] was tested, and the EC50 was 26.4 µg/mL (≈ 61.5 µM).
